Experimental data published in patent US20250026766A1, “Thiazolopyridyl Amide Derivatives as DNA Polymerase Theta Inhibitors” (BeiGene, Ltd., priority 2022, published 2025).

Molecular target: Pol Theta (1-894) (Homo sapiens (Human), UniProt O75417)
Test: Biochemical Pol Theta (1-894) ATPase IC50 assay (ADP-Glo, ssDNA substrate)
Settings: ADP-Glo assay with ssDNA substrate, room temperature
Method: Baculovirus Expression of Human POL theta (1-894)
Human POL Theta (1-894)-His-pFastBac1 baculovirus samples were generated using the Bac-to-Bac baculovirus expression system (Invitrogen) according to the manufacturer's protocol. […] Baculovirus amplification was achieved using infected SF9 cells at 1:2000 virus/cells ratios, and grown for 96 hours at 27° C. post-transfection. The expression scaled up for each protein was carried out in the flask 3 L from CORNING. 4 L of 3×10^6 cells/mL Sf9 cells (Expression System, Invitrogen) grown in SF900TM II SFM insect medium (Expression System) were infected with virus stock at 1:200 virus/cell ratios, and grown for 48 hours at 27° C. post-transfection. The infected cell culture was harvested by centrifugation at 6000 rpm for 15 min 4° C. in a SORVALL LYNX6000 centrifuge. The cell pellets were stored at −80° C.
The human POL Theta (1-894)-His produced as described above, were purified from Sf9 baculovirus-infected insect cell paste. The cells were lysed using sonication method, and the lysates were clarified by centrifugation.
Enzymatic reactions of Pol Theta (1-894) were performed using ADP-Glo assay with ssDNA substrate. Pol Theta (1-894) was expressed in baculovirus expression system. The inhibition activities testing for the compound disclosed herein were carried out at room temperature in assay buffer containing 40 mM Tris pH 7.5, 20 mM MgCl2, 1 mM DTT, 0.01% BSA and 0.05% Tween-20. Compounds in DMSO were dispensed into wells of a black 384 well plate (Corning 4514) using D300e digital dispenser (Tecan). The ranges of compounds final concentration were 2.62 nM˜10000 nM. 3 μL 2× enzyme solution containing 12.5 nM enzyme was added to wells. […] After 1 hour reaction, 5 μL ADP-Glo reagent (Promga V9102) was added and incubated for 40 minutes. 10 μL Kinase Detection reagent was added and incubated for 40 minutes. Luminescence was measured on a microplate reader (PHERAstar FSX, BMG labtech). The IC50 values were calculated based on inhibition of enzyme activity in the presence of increasing concentrations of compounds.

Pol Theta (1-894), sequence (O75417 1-894): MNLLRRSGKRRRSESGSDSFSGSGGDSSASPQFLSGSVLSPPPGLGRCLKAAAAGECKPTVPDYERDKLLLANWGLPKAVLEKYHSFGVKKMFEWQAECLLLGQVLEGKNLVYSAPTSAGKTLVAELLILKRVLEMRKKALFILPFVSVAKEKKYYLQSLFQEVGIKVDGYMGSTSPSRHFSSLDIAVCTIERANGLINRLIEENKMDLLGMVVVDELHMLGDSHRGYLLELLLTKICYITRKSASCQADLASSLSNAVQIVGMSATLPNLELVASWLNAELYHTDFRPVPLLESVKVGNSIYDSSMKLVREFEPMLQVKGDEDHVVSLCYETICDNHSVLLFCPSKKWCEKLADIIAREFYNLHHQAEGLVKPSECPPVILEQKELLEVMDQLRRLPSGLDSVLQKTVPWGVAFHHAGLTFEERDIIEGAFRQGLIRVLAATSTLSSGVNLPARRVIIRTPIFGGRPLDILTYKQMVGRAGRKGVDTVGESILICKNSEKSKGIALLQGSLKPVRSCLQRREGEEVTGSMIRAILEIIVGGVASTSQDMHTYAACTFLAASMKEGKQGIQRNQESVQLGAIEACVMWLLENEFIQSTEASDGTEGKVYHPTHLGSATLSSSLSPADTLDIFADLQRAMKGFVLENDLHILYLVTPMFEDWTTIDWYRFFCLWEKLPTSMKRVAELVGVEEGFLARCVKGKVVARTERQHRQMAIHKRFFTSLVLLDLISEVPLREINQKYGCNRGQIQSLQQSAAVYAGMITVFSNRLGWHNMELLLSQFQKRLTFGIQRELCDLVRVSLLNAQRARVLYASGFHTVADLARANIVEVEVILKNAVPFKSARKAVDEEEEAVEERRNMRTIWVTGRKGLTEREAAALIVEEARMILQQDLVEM

Row | SMILES | IC50
1 | COc1ccc(C#N)cc1-c1cc(C)ncc1C(=O)Nc1nc2ccc(-c3ccc(N(C)S(C)(=O)=O)cc3)nc2s1 [Example 32, 4-(5-cyano-2-methoxyphenyl)-6-methyl-N-(5-(4-(N-methylmethylsulfonamido)phenyl)thiazolo[5,4-b]pyridin-2-yl)nicotinamide] | 0.026 µM
2 | COc1ccc(C#N)cc1-c1cc(Cl)ncc1C(=O)Nc1nc2ccc(-c3ccc(C#N)cc3)nc2s1 [Example 33, 6-chloro-4-(5-cyano-2-methoxyphenyl)-N-(5-(4-cyanophenyl)thiazolo[5,4-b]pyridin-2-yl)nicotinamide] | 0.0085 µM
3 | COc1ccc(C#N)cc1-c1cc(CC#N)ncc1C(=O)Nc1nc2ccc(-c3ccc(C#N)cc3)nc2s1 [Example 34, 4-(5-cyano-2-methoxyphenyl)-6-(cyanomethyl)-N-(5-(4-cyanophenyl)thiazolo[5,4-b]pyridin-2-yl)nicotinamide] | 0.016 µM
4 | CCS(=O)(=O)Nc1ccc(-c2ccc3nc(NC(=O)c4cnc(C)cc4-c4cc(C#N)ccc4OC)sc3n2)cc1 [Example 35, 4-(5-cyano-2-methoxyphenyl)-N-(5-(4-(ethylsulfonamido)phenyl)thiazolo[5,4-b]pyridin-2-yl)-6-methylnicotinamide] | 0.094 µM
5 | COc1ccc(C#N)cc1-c1cc(C#N)ncc1C(=O)Nc1nc2ccc(-c3ccc(NC(C)=O)cc3)nc2s1 [Example 36, N-(5-(4-acetamidophenyl)thiazolo[5,4-b]pyridin-2-yl)-6-cyano-4-(5-cyano-2-methoxyphenyl)nicotinamide] | 0.073 µM
6 | COc1ccc(C#N)cc1-c1cc(C(F)(F)F)ncc1C(=O)Nc1nc2ccc(-c3ccc(C#N)cc3)nc2s1 [Example 37, 4-(5-cyano-2-methoxyphenyl)-N-(5-(4-cyanophenyl)thiazolo[5,4-b]pyridin-2-yl)-6-(trifluoromethyl)nicotinamide] | 0.151 µM
7 | COc1ccc(C#N)cc1-c1ccncc1C(=O)Nc1nc2ccc(-c3ccc(C#N)cc3)nc2s1 [Example 38, 4-(5-cyano-2-methoxyphenyl)-N-(5-(4-cyanophenyl)thiazolo[5,4-b]pyridin-2-yl)nicotinamide] | 0.011 µM
8 | COc1ccc(C#N)cc1-c1cc(F)ncc1C(=O)Nc1nc2ccc(-c3ccc(C#N)cc3)nc2s1 [Example 39, 4-(5-cyano-2-methoxyphenyl)-N-(5-(4-cyanophenyl)thiazolo[5,4-b]pyridin-2-yl)-6-fluoronicotinamide] | 0.073 µM
9 | COc1ccc(C#N)cc1-c1cc(C)ncc1C(=O)Nc1nc2ccc(-c3ccc(C(F)(F)F)cc3)nc2s1 [Example 40, 4-(5-cyano-2-methoxyphenyl)-6-methyl-N-(5-(4-(trifluoromethyl)phenyl)thiazolo[5,4-b]pyridin-2-yl)nicotinamide] | 0.087 µM
10 | CCC(=O)Nc1ccc(-c2ccc3nc(NC(=O)c4cnc(C)cc4-c4cc(C#N)ccc4OC)sc3n2)cc1 [Example 41, 4-(5-cyano-2-methoxyphenyl)-6-methyl-N-(5-(4-propionamidophenyl)thiazolo[5,4-b]pyridin-2-yl)nicotinamide] | 0.091 µM
11 | COc1ccc(C#N)cc1-c1cc(C)ncc1C(=O)Nc1nc2ccc(-c3ccc(NC(=O)CO)cc3)nc2s1 [Example 42, 4-(5-cyano-2-methoxyphenyl)-N-(5-(4-(2-hydroxyacetamido)phenyl)thiazolo[5,4-b]pyridin-2-yl)-6-methylnicotinamide] | 0.065 µM
12 | COc1ccc(C#N)cc1-c1cc(C)ncc1C(=O)Nc1nc2ccc(-c3ccc(N4CCOC4=O)cc3)nc2s1 [Example 43, 4-(5-cyano-2-methoxyphenyl)-6-methyl-N-(5-(4-(2-oxooxazolidin-3-yl)phenyl)thiazolo[5,4-b]pyridin-2-yl)nicotinamide] | 0.075 µM
13 | COc1ccc(C#N)cc1-c1cc(C)ncc1C(=O)Nc1nc2ccc(-c3ccc(CO)cc3)nc2s1 [Example 44, 4-(5-cyano-2-methoxyphenyl)-N-(5-(4-(hydroxymethyl)phenyl)thiazolo[5,4-b]pyridin-2-yl)-6-methylnicotinamide] | 0.014 µM
